According to the supplement of paper PMC10307832:

How the values were obtained:
Assay in all cases: relative viability (nuclei count vs DMSO), 5 days (fraction); higher = more cells survive
FH535 = compound: CC1=C(C=CC(=C1)[N+](=O)[O-])NS(=O)(=O)C2=C(C=CC(=C2)Cl)Cl [FH535]
Procedure, shortened: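 Cells of lung cancer lines were placed in 1536-well plates and kept overnight at 37 °C. Pinning then delivered five library-drug doses (not always all listed), spaced by √10, onto plates anchored with vehicle, and the cells were left 5 days without changing medium. One step fixed, permeabilised and stained them with Hoechst, and MetaXpress counted nuclei in 4× images. Viability, as a median over plates, is treated-well nuclei divided by vehicle-well nuclei, with acceptance only at control CV below 25% and at least one doubling.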

FH535 + Pemetrexed = compound: CC1=C(C=CC(=C1)[N+](=O)[O-])NS(=O)(=O)C2=C(C=CC(=C2)Cl)Cl [FH535] + Nc1nc2[nH]cc(CCc3ccc(C(=O)N[C@@H](CCC(=O)O)C(=O)O)cc3)c2c(=O)[nH]1 [Pemetrexed] (partner 0.2 µM)
Procedure, shortened: (§1)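 Lung cancer cell lines, seeded in 1536-well plates, were treated the following day by pin tool with a single drug or with five library-drug doses (not always all listed) in √10 steps on top of a fixed anchor-drug dose. Cells were fixed and nuclei stained in one step after 5 days, and nuclei were counted. Relative viability is the nuclei count for treated wells divided by that for vehicle wells, reported as medians of duplicate plates.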

FH535 + OSI-027 = compound: CC1=C(C=CC(=C1)[N+](=O)[O-])NS(=O)(=O)C2=C(C=CC(=C2)Cl)Cl [FH535] + COc1cccc2cc(-c3nc([C@H]4CC[C@H](C(=O)O)CC4)n4ncnc(N)c34)[nH]c12 [OSI-027] (partner 0.5 µM)
Procedure, shortened: as §1

FH535 + Vorinostat = compound: CC1=C(C=CC(=C1)[N+](=O)[O-])NS(=O)(=O)C2=C(C=CC(=C2)Cl)Cl [FH535] + O=C(CCCCCCC(=O)Nc1ccccc1)NO [Vorinostat] (partner 1 µM)
Procedure, shortened: as §1

FH535 + AZD7762 = compound: CC1=C(C=CC(=C1)[N+](=O)[O-])NS(=O)(=O)C2=C(C=CC(=C2)Cl)Cl [FH535] + NC(=O)Nc1cc(-c2cccc(F)c2)sc1C(=O)N[C@H]1CCCNC1 [AZD7762] (partner 0.2 µM)
Procedure, shortened: as §1

FH535 + Trametinib = compound: CC1=C(C=CC(=C1)[N+](=O)[O-])NS(=O)(=O)C2=C(C=CC(=C2)Cl)Cl [FH535] + CC(=O)Nc1cccc(-n2c(=O)n(C3CC3)c(=O)c3c(Nc4ccc(I)cc4F)n(C)c(=O)c(C)c32)c1 [Trametinib] (partner 0.02 µM)
Procedure, shortened: as §1

FH535 + Decitabine = compound: CC1=C(C=CC(=C1)[N+](=O)[O-])NS(=O)(=O)C2=C(C=CC(=C2)Cl)Cl [FH535] + Nc1ncn([C@H]2C[C@H](O)[C@@H](CO)O2)c(=O)n1 [Decitabine] (partner 2 µM)
Procedure, shortened: as §1

FH535 + Palbociclib = compound: CC1=C(C=CC(=C1)[N+](=O)[O-])NS(=O)(=O)C2=C(C=CC(=C2)Cl)Cl [FH535] + CC(=O)c1c(C)c2cnc(Nc3ccc(N4CCNCC4)cn3)nc2n(C2CCCC2)c1=O [Palbociclib] (partner 0.5 µM)
Procedure, shortened: as §1

FH535 + Tozasertib = compound: CC1=C(C=CC(=C1)[N+](=O)[O-])NS(=O)(=O)C2=C(C=CC(=C2)Cl)Cl [FH535] + Cc1cc(Nc2cc(N3CCN(C)CC3)nc(Sc3ccc(NC(=O)C4CC4)cc3)n2)n[nH]1 [Tozasertib] (partner 0.1 µM)
Procedure, shortened: as §1

FH535 + Olaparib = compound: CC1=C(C=CC(=C1)[N+](=O)[O-])NS(=O)(=O)C2=C(C=CC(=C2)Cl)Cl [FH535] + O=C(c1cc(Cc2n[nH]c(=O)c3ccccc23)ccc1F)N1CCN(C(=O)C2CC2)CC1 [Olaparib] (partner 8 µM)
Procedure, shortened: as §1

FH535 + Dasatinib = compound: CC1=C(C=CC(=C1)[N+](=O)[O-])NS(=O)(=O)C2=C(C=CC(=C2)Cl)Cl [FH535] + Cc1nc(Nc2ncc(C(=O)Nc3c(C)cccc3Cl)s2)cc(N2CCN(CCO)CC2)n1 [Dasatinib] (partner 0.075 µM)
Procedure, shortened: as §1

FH535 + Phenformin = compound: CC1=C(C=CC(=C1)[N+](=O)[O-])NS(=O)(=O)C2=C(C=CC(=C2)Cl)Cl [FH535] + N=C(N)NC(=N)NCCc1ccccc1 [Phenformin] (partner 250 µM)
Procedure, shortened: as §1

FH535 + Luminespib = compound: CC1=C(C=CC(=C1)[N+](=O)[O-])NS(=O)(=O)C2=C(C=CC(=C2)Cl)Cl [FH535] + CCNC(=O)c1noc(-c2cc(C(C)C)c(O)cc2O)c1-c1ccc(CN2CCOCC2)cc1 [Luminespib] (partner 0.01 µM)
Procedure, shortened: as §1

**Q.** What does the source list for NCI-H1648?
**A.** relative viability (FH535; 0.04 µM): 0.645; relative viability (FH535; 0.1265 µM): 0.828; relative viability (FH535; 0.4 µM): 0.837; relative viability (FH535; 1.265 µM): 0.641; relative viability (FH535 + Pemetrexed; first compound 0.1265 µM): 0.655; relative viability (FH535 + Pemetrexed; first compound 0.4 µM): 0.532; relative viability (FH535 + Pemetrexed; first compound 1.265 µM): 0.635; relative viability (FH535 + OSI-027; first compound 0.04 µM): 0.243; relative viability (FH535 + OSI-027; first compound 0.4 µM): 0.254; relative viability (FH535 + OSI-027; first compound 1.265 µM): 0.243; relative viability (FH535 + Vorinostat; first compound 0.1265 µM): 0.595; relative viability (FH535 + Vorinostat; first compound 0.4 µM): 0.709; relative viability (FH535 + Vorinostat; first compound 1.265 µM): 0.473; relative viability (FH535 + AZD7762; first compound 0.1265 µM): 0.654; relative viability (FH535 + AZD7762; first compound 0.4 µM): 0.612; relative viability (FH535 + AZD7762; first compound 1.265 µM): 0.625; relative viability (FH535 + Trametinib; first compound 0.1265 µM): 0.441; relative viability (FH535 + Trametinib; first compound 0.4 µM): 0.544; relative viability (FH535 + Trametinib; first compound 1.265 µM): 0.352; relative viability (FH535 + Decitabine; first compound 0.1265 µM): 0.585; relative viability (FH535 + Decitabine; first compound 0.4 µM): 0.478; relative viability (FH535 + Decitabine; first compound 1.265 µM): 0.398; relative viability (FH535 + Palbociclib; first compound 0.1265 µM): 0.219; relative viability (FH535 + Palbociclib; first compound 0.4 µM): 0.273; relative viability (FH535 + Palbociclib; first compound 1.265 µM): 0.225; relative viability (FH535 + Tozasertib; first compound 0.04 µM): 0.397; relative viability (FH535 + Tozasertib; first compound 0.4 µM): 0.603; relative viability (FH535 + Tozasertib; first compound 1.265 µM): 0.281; relative viability (FH535 + Olaparib; first compound 0.1265 µM): 0.888; relative viability (FH535 + Olaparib; first compound 0.4 µM): 1.08; relative viability (FH535 + Olaparib; first compound 1.265 µM): 0.383

**Q.** Which relative viability (FH535; 0.04 µM) does the source give for NCI-H522 here?
**A.** 0.875

**Q.** What about the relative viability (FH535; 0.1265 µM) of the same cell line?
**A.** 0.894

**Q.** And the relative viability (FH535; 0.4 µM)?
**A.** 0.856

**Q.** What about the relative viability (FH535; 1.265 µM) of the same cell line?
**A.** 0.825

**Q.** What about the relative viability (FH535 + Dasatinib; first compound 0.04 µM) of the same cell line?
**A.** 0.882

**Q.** What about the relative viability (FH535 + Dasatinib; first compound 0.1265 µM) of the same cell line?
**A.** 0.862

**Q.** What about the relative viability (FH535 + Dasatinib; first compound 0.4 µM) of the same cell line?
**A.** 0.827

**Q.** What about the relative viability (FH535 + Dasatinib; first compound 1.265 µM) of the same cell line?
**A.** 0.979

**Q.** And the relative viability (FH535 + Pemetrexed; first compound 0.04 µM)?
**A.** 0.847

**Q.** What about the relative viability (FH535 + Pemetrexed; first compound 0.1265 µM) of the same cell line?
**A.** 1.01

**Q.** What about the relative viability (FH535 + Pemetrexed; first compound 0.4 µM) of the same cell line?
**A.** 0.994

**Q.** What about the relative viability (FH535 + Pemetrexed; first compound 1.265 µM) of the same cell line?
**A.** 1.08

**Q.** And the relative viability (FH535 + OSI-027; first compound 0.04 µM)?
**A.** 0.7

**Q.** What about the relative viability (FH535 + OSI-027; first compound 0.1265 µM) of the same cell line?
**A.** 0.767

**Q.** What about the relative viability (FH535 + OSI-027; first compound 0.4 µM) of the same cell line?
**A.** 0.734

**Q.** And the relative viability (FH535 + OSI-027; first compound 1.265 µM)?
**A.** 0.636

**Q.** And the relative viability (FH535 + Vorinostat; first compound 0.04 µM)?
**A.** 0.855

**Q.** What about the relative viability (FH535 + Vorinostat; first compound 0.1265 µM) of the same cell line?
**A.** 0.858

**Q.** And the relative viability (FH535 + Vorinostat; first compound 0.4 µM)?
**A.** 0.731

**Q.** What about the relative viability (FH535 + Vorinostat; first compound 1.265 µM) of the same cell line?
**A.** 0.78

**Q.** And the relative viability (FH535 + Phenformin; first compound 0.04 µM)?
**A.** 0.591

**Q.** And the relative viability (FH535 + Phenformin; first compound 0.1265 µM)?
**A.** 0.575

**Q.** What about the relative viability (FH535 + Phenformin; first compound 0.4 µM) of the same cell line?
**A.** 0.621

**Q.** And the relative viability (FH535 + Phenformin; first compound 1.265 µM)?
**A.** 0.62

**Q.** And the relative viability (FH535 + AZD7762; first compound 0.04 µM)?
**A.** 0.717

**Q.** What about the relative viability (FH535 + AZD7762; first compound 0.1265 µM) of the same cell line?
**A.** 0.947

**Q.** And the relative viability (FH535 + AZD7762; first compound 0.4 µM)?
**A.** 0.688

**Q.** What about the relative viability (FH535 + AZD7762; first compound 1.265 µM) of the same cell line?
**A.** 0.864

**Q.** What about the relative viability (FH535 + Trametinib; first compound 0.04 µM) of the same cell line?
**A.** 0.731

**Q.** What about the relative viability (FH535 + Trametinib; first compound 0.1265 µM) of the same cell line?
**A.** 0.968

**Q.** What about the relative viability (FH535 + Trametinib; first compound 0.4 µM) of the same cell line?
**A.** 0.804

**Q.** And the relative viability (FH535 + Trametinib; first compound 1.265 µM)?
**A.** 0.622

**Q.** And the relative viability (FH535 + Decitabine; first compound 0.04 µM)?
**A.** 0.588

**Q.** What about the relative viability (FH535 + Decitabine; first compound 0.1265 µM) of the same cell line?
**A.** 0.697

**Q.** What about the relative viability (FH535 + Decitabine; first compound 0.4 µM) of the same cell line?
**A.** 0.712

**Q.** And the relative viability (FH535 + Decitabine; first compound 1.265 µM)?
**A.** 0.698

**Q.** And the relative viability (FH535 + Palbociclib; first compound 0.04 µM)?
**A.** 0.984

**Q.** And the relative viability (FH535 + Palbociclib; first compound 0.1265 µM)?
**A.** 0.936

**Q.** What about the relative viability (FH535 + Palbociclib; first compound 0.4 µM) of the same cell line?
**A.** 0.945

**Q.** And the relative viability (FH535 + Palbociclib; first compound 1.265 µM)?
**A.** 0.701

**Q.** What about the relative viability (FH535 + Tozasertib; first compound 0.04 µM) of the same cell line?
**A.** 0.529

**Q.** What about the relative viability (FH535 + Tozasertib; first compound 0.1265 µM) of the same cell line?
**A.** 0.502

**Q.** What about the relative viability (FH535 + Tozasertib; first compound 0.4 µM) of the same cell line?
**A.** 0.601

**Q.** And the relative viability (FH535 + Tozasertib; first compound 1.265 µM)?
**A.** 0.534

**Q.** And the relative viability (FH535 + Olaparib; first compound 0.04 µM)?
**A.** 0.686

**Q.** What about the relative viability (FH535 + Olaparib; first compound 0.1265 µM) of the same cell line?
**A.** 0.717

**Q.** And the relative viability (FH535 + Olaparib; first compound 0.4 µM)?
**A.** 0.632

**Q.** What about the relative viability (FH535 + Olaparib; first compound 1.265 µM) of the same cell line?
**A.** 0.467

**Q.** And the relative viability (FH535 + Luminespib; first compound 0.04 µM)?
**A.** 1.29

**Q.** And the relative viability (FH535 + Luminespib; first compound 0.1265 µM)?
**A.** 1.17

**Q.** What about the relative viability (FH535 + Luminespib; first compound 0.4 µM) of the same cell line?
**A.** 1.16

**Q.** And the relative viability (FH535 + Luminespib; first compound 1.265 µM)?
**A.** 0.996
